Source: patent publication US8609417B2, “Methods and compositions for stem cell cultures” (The Regents of the University of California, priority 2009, dated 2013)
Entries after “also recorded” stand apart in the source; their conditions may differ.

Columns and labels:
[1] = tested on: hiPS cells; assay: Cell viability assay under adherence conditions (trypan blue live cell counting); format: cell-based, human
Experimental: hES or hiPS cells were plated at 1×10^5 cells/well on 12-well plates coated with PDL or Matrigel in mTeSR in the presence or absence of blebbistatin or Y-27632 at various concentrations in triplicates. DMSO (solvent for blebbistatin) was also added in the control condition and found to have no effect on viability. For mES cells, cells were plated under the same condition except for the use of gelatin coating and mES medium. After 24 h, cells were harvested, trypsinized to single cells, and counted by hemocytometer. Cell counting was performed independently by two researchers to confirm the consistency. The same samples were used for TUNEL assay immediately after taking a small fraction of the sample for cell counting.

[2] = tested on: hiPS cells; assay: Cell viability under suspension culture; format: cell-based, human; conditions: hPS cells in suspension, 2 days, various concentrations
Experimental: For the evaluation of cell viability under suspension culture, hES or hiPS cells were plated at 5×10^5 in non-tissue culture-treated 6-well plates with non-conditioned standard hESm containing blebbistatin or Y-27632 at different concentrations in triplicates. After 2 days, cells were harvested with trypsinization and extensive trituration by pipetting, and the number of live cells was manually counted by using hemocytometer and trypan blue staining. The cell survival ratio (%) represents the ratio of the number of live cells to the number of cells plated. The same samples were subjected to TUNEL assay for side by side comparison with the data from cell viability assay.

[3] = tested on: hiPS cells; assay: Cell growth assay (population doubling time); format: cell-based, human; conditions: hiPS cells on PDL in mTeSR, compound at 5 μM
Experimental: For the cell growth assay, hiPS or hES cells were plated at 2.5×10^4 cells/cm^2 on plates coated with PDL or Matrigel in mTeSR in the presence of blebbistatin at 5 μM or Y-27632 at 5 μM (PDL) or in the absence of compounds (Matrigel). Cells were harvested at the indicated time points, stained with trypan blue, and counted by the hemocytometer.

[4] = tested on: mES cells; assay: Cell-cell contact of mES cells (morphology, cell contact index); format: cell-based, mouse
Source text: Rho and Rho-associated kinase (Rock) play a role in regulation of cell-cell interactions in pluripotent stem cells. In order to further explore the core mechanism underlying cell-cell adhesions, principle regulators downstream of Rock were examined. Based on functional prescreening non-muscle myosin II was identified as an effector by siRNA-mediated loss of function analysis. Non-muscle Myosin II (myosin II), the two-headed conventional myosin, consists of non-muscle myosin II heavy chain (NMHC) dimers and two sets of myosin light chains (MLCs). […] Among them, all the genes except IIC are expressed in pluripotent stem cells whereas differentiated cells express all three isoforms. […] The specificity and levels of knockdown of the target genes by each siRNA were confirmed by quantitative RT-PCR (QPCR) (FIG. 2). Myosin phosphatase target subunit 1 (MYPT1), a major downstream target of Rock that negatively regulates myosin function through […] of myosin regulatory light chain (MRLC) was examined. MYPT1 was exclusively localized to cell-cell contact sites in mES cells (FIG. 1B). If Rock controls the myosin function through inhibition of MYPT1, depletion of MYPT1 would rescue the intrinsic cell-cell interactions from the robust effect of Y27632 (FIG. 1C).

[5] = tested on: hES cells; assay: Cell-cell contact of hES cells (morphology, cell contact index); format: cell-based, human; conditions: hES cells grown on Matrigel
Experimental: Rock and myosin II regulate cell-cell interactions in hES cells. To test whether the observed function of RRM signaling in cell-cell contacts in mES cells is conserved in hES cells, H1 cells grown under the feeder-free condition with Matrigel™ and conditioned medium (CM) (FIG. 3A) were treated with C3 exoenzyme. […] Rock-inhibitor treatment also led to cell adhesion defects although it required a higher concentration (20 μM) than that (10 μM) for mES cells (FIG. 3C). Myosin IIA and IIB were colocalized with cell-cell borders in hES cells, which indicates their potential role in cell-cell adhesions (FIG. 3D).

Compound | Effect on cell survival ([1]; hiPS cells on PDL-coated dishes, different concentrations) | Effect on survival in suspension culture [2] | Population doubling time [3] [h] | Concentration that disassembled cell-cell junctions [4] [µM] | Number of viable cells ([1]; hiPS cells on PDL, 10 μM, 24 h after plating 1×10^5 cells/well, n=3) | Concentration that disassembled cell-cell junctions [5] [µM]
O=S(=O)(c1cccc2c(I)cccc12)N1CCCNCC1 [ML-7] | No significant increase in cell survival | did not show a significant effect on survival; also recorded: No difference in the survival rate | – | – | – | –
C[C@@H](N)[C@H]1CC[C@H](C(=O)Nc2ccncc2)CC1 [Y-27632] | – | – | ~32.2 | 10 | 7.2±1.1×10^4 cells | 20
